This is an account of results in patent US20060063759A1, “Tricyclic steroid hormone nuclear receptor modulators” (priority 2002, published 2006).

The target of assay [1] is T1, human MR (Homo sapiens, UniProt P08235).
T1 construct: The full length human MR gene is cloned from a human kidney or human brain cDNA library; His tag from the pAcHLT vector (own knowledge); made in house; host or cells: Sf9 insect cells (baculovirus, pAcHLT transfer vector)
T1 sequence (P08235 1-984): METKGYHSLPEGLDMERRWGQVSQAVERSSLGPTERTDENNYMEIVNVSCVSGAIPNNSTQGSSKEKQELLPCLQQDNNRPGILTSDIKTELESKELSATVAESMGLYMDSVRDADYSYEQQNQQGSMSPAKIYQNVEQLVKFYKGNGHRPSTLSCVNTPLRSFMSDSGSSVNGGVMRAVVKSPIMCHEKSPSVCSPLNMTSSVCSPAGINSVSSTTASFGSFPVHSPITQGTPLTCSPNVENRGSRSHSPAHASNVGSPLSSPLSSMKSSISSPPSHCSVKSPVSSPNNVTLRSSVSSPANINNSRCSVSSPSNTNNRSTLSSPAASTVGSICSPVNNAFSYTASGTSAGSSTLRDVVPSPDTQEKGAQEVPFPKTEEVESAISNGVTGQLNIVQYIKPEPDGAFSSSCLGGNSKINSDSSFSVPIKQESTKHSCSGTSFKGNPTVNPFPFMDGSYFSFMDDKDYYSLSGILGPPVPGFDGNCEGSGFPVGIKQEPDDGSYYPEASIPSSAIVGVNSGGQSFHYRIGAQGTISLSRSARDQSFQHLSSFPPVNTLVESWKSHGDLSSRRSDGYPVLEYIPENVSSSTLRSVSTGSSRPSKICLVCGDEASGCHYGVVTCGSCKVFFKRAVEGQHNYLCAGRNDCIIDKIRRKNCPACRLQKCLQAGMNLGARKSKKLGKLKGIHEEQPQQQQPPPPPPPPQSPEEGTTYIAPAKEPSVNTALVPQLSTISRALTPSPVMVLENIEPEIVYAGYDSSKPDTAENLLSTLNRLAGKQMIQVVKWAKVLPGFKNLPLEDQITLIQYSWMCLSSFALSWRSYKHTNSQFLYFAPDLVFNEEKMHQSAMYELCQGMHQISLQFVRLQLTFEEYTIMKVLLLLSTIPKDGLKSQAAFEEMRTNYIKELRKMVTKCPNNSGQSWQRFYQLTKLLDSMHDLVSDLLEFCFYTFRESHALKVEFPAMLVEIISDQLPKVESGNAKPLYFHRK
Description: Mineralocorticoid Receptor Binding Assay ([3H]-aldosterone). To be noted: [3H]-aldosterone binding, human MR expressed in Sf9 cells; read-out: MR Ki. The procedure, abridged:
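Lysate supernatant of Sf9 cells expressing full-length human MR (20-25 μg protein) was incubated with 0.5 nM [3H]-aldosterone and test compound in molybdate/Tris/phosphate/glycerol buffer, pH 7.5, ~16 h at 4 °C. Bound ligand was filtered and counted by scintillation; IC50 is the concentration halving [3H]-aldosterone binding.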

In assay [2] the target is T2, glucocorticoid receptor (Homo sapiens, UniProt P04150).
T2 construct: containing 50-200 ug of A549 cell extract and 1.86 nM [^3H]-dexamethasone; host or cells: A549 human lung epithelial cells (sonicated cell extract)
T2 sequence (P04150 1-777): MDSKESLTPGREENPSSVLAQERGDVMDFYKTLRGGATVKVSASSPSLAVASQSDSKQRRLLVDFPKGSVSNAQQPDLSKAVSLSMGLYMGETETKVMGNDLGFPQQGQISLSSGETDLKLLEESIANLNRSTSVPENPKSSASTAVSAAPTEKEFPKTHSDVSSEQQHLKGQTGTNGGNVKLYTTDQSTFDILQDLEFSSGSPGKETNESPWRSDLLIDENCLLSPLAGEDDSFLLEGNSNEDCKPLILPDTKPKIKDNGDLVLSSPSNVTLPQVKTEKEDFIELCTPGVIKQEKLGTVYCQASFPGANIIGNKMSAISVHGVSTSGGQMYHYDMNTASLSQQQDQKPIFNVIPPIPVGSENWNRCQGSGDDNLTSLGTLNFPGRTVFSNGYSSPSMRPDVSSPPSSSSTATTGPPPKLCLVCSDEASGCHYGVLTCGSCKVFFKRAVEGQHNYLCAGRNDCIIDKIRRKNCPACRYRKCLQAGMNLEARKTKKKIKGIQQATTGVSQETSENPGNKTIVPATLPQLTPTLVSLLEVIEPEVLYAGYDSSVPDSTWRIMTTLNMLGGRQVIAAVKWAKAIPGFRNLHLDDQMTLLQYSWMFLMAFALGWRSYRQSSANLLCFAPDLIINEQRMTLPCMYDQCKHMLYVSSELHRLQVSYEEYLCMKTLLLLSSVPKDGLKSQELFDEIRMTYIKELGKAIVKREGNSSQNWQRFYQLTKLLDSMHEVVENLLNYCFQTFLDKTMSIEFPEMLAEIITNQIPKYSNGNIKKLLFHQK
Description: Glucocorticoid Receptor Binding Assay ([3H]-dexamethasone, A549 cell extract). To be noted: [3H]-dexamethasone binding, read-out: GR Ki. The procedure, abridged:
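A549 cell extract (50–200 ug) incubated with 1.86 nM [3H]-dexamethasone and test compound for 16 h at 4 °C in Tris-HCl pH 7.2 buffer with glycerol and molybdate. Unbound radioligand removed by dextran-coated charcoal, then supernatant bound counts measured by scintillation.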

A value given as a limit tells only on which side of the number the result lay.

Take `CN(C)S(=O)(=O)Nc1cccc(C=C2c3ccccc3CCc3ccccc32)c1` [Example 112, Dimethylsulfamic acid [3-(10,11-dihydro-dibenzo[a,d]cyclohepten-5-ylidenemethyl)-phenyl]-amide]: the Ki in assay [1] and in assay [2] was less than 500 nM throughout.

`CN(C)S(=O)(=O)Nc1ccc(C=C2c3ccccc3CCc3ccccc32)cc1` [Example 113, Dimethylsulfamic acid [4-(10,11-dihydro-dibenzo[a,d]cyclohepten-5-ylidenemethyl)-phenyl]-amide]: the Ki in assay [1] and in assay [2] was less than 500 nM in each case.

For `CC(=O)Nc1cccc(C=C2c3ccccc3CCc3ccccc32)c1` [Example 114, N-[3-(10,11-Dihydro-dibenzo[a,d]cyclohepten-5-ylidenemethyl)-phenyl]-acetamide], the Ki in assay [1] and in assay [2] was less than 500 nM throughout.

`CNc1cccc(C=C2c3ccccc3CCc3ccccc32)c1` [Example 118, [3-(10,11-Dihydro-dibenzo[a,d]cyclohepten-5-ylidenemethyl)-phenyl]-methyl-amine]: the Ki in assay [1] and in assay [2] was less than 500 nM each time.

In the case of `CNc1ccccc1C=C1c2ccccc2CCc2ccccc21` [Example 120, [2-(10,11-Dihydro-dibenzo[a,d]cyclohepten-5-ylidenemethyl)-phenyl]-methyl-amine], the Ki in assay [1] is less than 500 nM; in assay [2], less than 10000 nM.

As to `CN(C)c1ccccc1C=C1c2ccccc2CCc2ccccc21` [Example 121, [2-(10,11-Dihydro-dibenzo[a,d]cyclohepten-5-ylidenemethyl)-phenyl]-dimethyl-amine], the Ki in assay [1] is less than 500 nM; in assay [2] it was less than 10000 nM.

Regarding `CS(=O)(=O)Nc1cccc(CC2c3ccccc3CCc3ccccc32)c1` [Example 125, N-[3-(10,11-Dihydro-5H-dibenzo[a,d]cyclohepten-5-ylmethyl)-phenyl]-methanesulfonamide], the Ki in assay [1] and in assay [2] was less than 500 nM each time.

With `NC(=O)Nc1cccc(C=C2c3ccccc3CCc3ccccc32)c1` [Example 128, [3-(10,11-Dihydro-dibenzo[a,d]cyclohepten-5-ylidenemethyl)-phenyl]-urea], the Ki in assay [1] is less than 500 nM; in assay [2], less than 1000 nM.

On to `NC(=O)Nc1ccc(C=C2c3ccccc3CCc3ccccc32)cc1` [Example 129, [4-(10,11-Dihydro-dibenzo[a,d]cyclohepten-5-ylidenemethyl)-phenyl]-urea], for which the Ki in assay [1] and in assay [2] was less than 500 nM throughout.

For the molecule `Cc1ccccc1C=C1c2ccccc2CCc2ccccc21` [Example 130, 5-(2-Methyl-benzylidene)-10,11-dihydro-5H-dibenzo [a,d]cycloheptene], the Ki was less than 500 nM in assay [1] and less than 10000 nM in assay [2].

`Cc1ccccc1CC1c2ccccc2CCc2ccccc21` [Example 131, 5-(2-Methyl-benzyl)-10,11-dihydro-5H-dibenzo[a,d]cycloheptene]: the Ki in assay [1] is less than 500 nM; in assay [2], less than 10000 nM.

`Cc1cccc(C=C2c3ccccc3CCc3ccccc32)c1` [Example 132, 5-(3-Methyl-benzylidene)-10,11-dihydro-5H-dibenzo[a,d]cycloheptene]: the Ki in assay [1] was less than 500 nM; in assay [2], less than 1000 nM.

In the case of `Cc1cccc(CC2c3ccccc3CCc3ccccc32)c1` [Example 133, 5-(3-Methyl-benzyl)-10,11-dihydro-5H-dibenzo[a,d]cycloheptene], the Ki in assay [1] is less than 500 nM; in assay [2] it was less than 1000 nM.

On to `FC(F)(F)c1cccc(CC2c3ccccc3CCc3ccccc32)c1` [Example 137, 5-(3-Trifluoromethyl-benzyl)-10,11-dihydro-5H-dibenzo[a,d]cycloheptene], for which the inhibition constant (Ki) in assay [1] was less than 500 nM; in assay [2], less than 1000 nM.

As to `FC(F)(F)c1cc(CC2c3ccccc3CCc3ccccc32)cc(C(F)(F)F)c1` [Example 141, 5-(3,5-Bis-Trifluoromethyl-benzyl)-10,11-dihydro-5H-dibenzo[a,d]cycloheptene], the Ki in assay [1] and in assay [2] was less than 500 nM in each case.

`Cn1cnc(S(=O)(=O)Nc2ccc(C=C3c4ccccc4CCc4ccccc43)cc2)c1` [Example 143, 1-Methyl-1H-imidazole-4-sulfonic acid [4-(10,11-dihydro-dibenzo[a,d]cyclohepten-5-ylidenemethyl)-phenyl]-amide]: the Ki in assay [1] was less than 500 nM; in assay [2], less than 10000 nM.

`CS(=O)(=O)NCc1cccc(C=C2c3ccccc3CCc3ccccc32)c1` [Example 145, N-[3-(10,11-Dihydro-dibenzo[a,d]cyclohepten-5-ylidenemethyl)-benzyl]-methanesulfonamide]: the Ki in assay [1] and in assay [2] was less than 500 nM each time.

Consider `COc1cc(C=C2c3ccccc3CCc3ccccc32)ccc1F` [Example 148, 5-(4-Fluoro-3-methoxy-benzylidene)-10,11-dihydro-5H-dibenzo[a,d]cycloheptene], for which the Ki is less than 500 nM in assay [1] and less than 1000 nM in assay [2].

Consider `Oc1cc(C=C2c3ccccc3CCc3ccccc32)ccc1F` [Example 149, 5-(10,11-Dihydro-dibenzo[a,d]cyclohepten-5-ylidenemethyl)-2-fluoro-phenol], for which the Ki in assay [1] and in assay [2] was less than 500 nM throughout.

In the case of `Oc1ccc(F)c(C=C2c3ccccc3CCc3ccccc32)c1` [Example 151, 3-(10,11-Dihydro-dibenzo[a,d]cyclohepten-5-ylidenemethyl)-4-fluoro-phenol], the Ki in assay [1] is less than 500 nM; in assay [2], less than 1000 nM.

`COc1cccc(C=C2c3ccccc3CCc3ccccc32)c1F` [Example 152, 5-(2-Fluoro-3-methoxy-benzylidene)-10,11-dihydro-5H-dibenzo[a,d]cycloheptene]: the Ki was less than 500 nM in assay [1] and less than 10000 nM in assay [2].

As for `COc1cc(F)cc(C=C2c3ccccc3CCc3ccccc32)c1` [Example 154, 5-(3-Fluoro-5-methoxy-benzylidene)-10,11-dihydro-5H-dibenzo[a,d]cycloheptene], the Ki is less than 500 nM in assay [1] and less than 1000 nM in assay [2].

Turning to `Oc1cc(F)cc(C=C2c3ccccc3CCc3ccccc32)c1` [Example 155, 3-(10,11-Dihydro-dibenzo[a,d]cyclohepten-5-ylidenemethyl)-5-fluoro-phenol], the Ki in assay [1] and in assay [2] was less than 500 nM throughout.

Turning to `Oc1cc(C=C2c3ccccc3CCc3ccccc32)ccc1Cl` [Example 157, 2-Chloro-5-(10,11-dihydro-dibenzo[a,d]cyclohepten-5-ylidenemethyl)-phenol], the Ki in assay [1] is less than 500 nM; in assay [2], less than 1000 nM.
